Patent US8545816B2, “Benzoic acid ester compounds, compositions, uses and methods related thereto” (Ferrer Internacional, S.A., priority 2005, dated 2013)

Tests used:
[1] = cited from earlier work; for Absorbance: UV region absorbed; for Protection nm: wavelength range of protection
[2] = Phototransposition under UVB lamp irradiation (UV absorption spectrum / TLC follow-up); format: physicochemical; conditions: for time to complete phototransposition (conversion to the dibenzoylmethane / benzophenone sunscreen): solution in methanol
Experimental: A solution of 5 mg of 1-phenylvinyl 4-methoxybenzoate in 10 mL of methanol was irradiated with UVB lamps ([…]) for 20 minutes at 35° C. […] The conversion to benzoyl-4-methoxybenzoyl-methane was observed from the beginning, being the complete conversion in 5 minutes.
A sample of 4 mL of a solution containing 0.231 mg of 1-(4-methoxyphenyl)-vinyl 4-tert-butylbenzoate in 50 mL of methanol was irradiated with UVB lamps (60 W·m^−2) for 10 minutes at 35° C. The conversion to avobenzone was completed in 5 minutes.
A sample of 4 mL of a solution containing 0.400 mg of 1-(4-tert-butylphenyl)-vinyl 4-methoxybenzoate in 50 mL of methanol was irradiated with UVB lamps (60 W·m^−2) for 10 minutes at 35° C. The conversion to avobenzone was completed in 5 minutes.
A solution containing 5 mg of 4-benzoyloxy-2-methoxy-benzenesulfonic acid in 10 mL of methanol was irradiated with UVB lamps (60 W·m^−2) for 20 minutes at 35° C. The absorption spectrum was then recorded minute by minute. The conversion to sulisobenzone was complete in 10 minutes.
A sample of 4 mL of a solution containing 0.395 mg of 3-diethylaminophenyl benzoate in 50 mL of methanol was irradiated with UVB lamps (60 W·m^−2) for 20 minutes at 35° C. The phototransformation to 4-diethylamino-2-hydroxybenzophenone was completed in 10 minutes.
A sample of 5 mg of 3-methoxyphenyl benzoate in 10 mL of polydimethylsiloxane (viscosity 10000 cSt) was irradiated with UVB lamps (60 W·m^−2) for 15 hours and 20 minutes at 35° C. The phototransformation to oxybenzone was completed in 40 minutes.
A solution of 5 mg of 1-phenylvinyl 4-tert-butylbenzoate in 10 mL of tert-butanol was irradiated with UVB lamps (60 W·m^−2) for 5 hours at 35° C.

| time to complete phototransposition (conversion to the dibenzoylmethane / benzophenone sunscreen) ([2]; UVB lamps 60 W·m^−2, 35° C.) | Compound | Absorbance [1] | Protection nm [1] | also measured |
| --- | --- | --- | --- | --- |
|  | COc1cc(O)c(C(=O)c2ccccc2)cc1S(=O)(=O)O [Sulisobenzone, 5-benzoyl-4-hydroxy-2-methoxy-benzenesulfonic acid] | UVB, UVA II^2 | 260-375 nm |  |
| 10 min | CCN(CC)c1cccc(OC(=O)c2ccccc2)c1 [3-diethylaminophenyl benzoate, 3-Diethylaminophenyl benzoate] |  |  |  |
|  | COc1cccc(OC(=O)c2ccccc2)c1 [3-methoxyphenyl benzoate, 3-Methoxyphenyl benzoate] |  |  | time to complete phototransformation to oxybenzone ([2]; in polydimethylsiloxane (viscosity 10000 cSt), UVB lamps 60 W·m^−2, 35° C.): 40 min |
|  | COc1ccc(C(=O)c2ccccc2)c(O)c1 [Oxybenzone, 2-hydroxy-4-methoxybenzophenone] | UVB, UVA II^2 | 270-350 nm |  |
| 5 min | C=C(OC(=O)c1ccc(OC)cc1)c1ccc(C(C)(C)C)cc1 [1-(4-Tert-butylphenyl)-vinyl 4-methoxybenzoate] |  |  |  |
| 10 min | COc1cc(OC(=O)c2ccccc2)ccc1S(=O)(=O)O [4-Benzoyloxy-2-methoxybenzene-sulfonic acid] |  |  |  |
| 5 min | C=C(OC(=O)c1ccc(C(C)(C)C)cc1)c1ccc(OC)cc1 [1-(4-Methoxyphenyl)-vinyl 4-tert-butylbenzoate] |  |  |  |
| 5 min | C=C(OC(=O)c1ccc(OC)cc1)c1ccccc1 [1-phenylvinyl 4-methoxybenzoate, 1-Phenylvinyl 4-methoxybenzoate] |  |  | crude reaction spectrum after irradiation ([2]; methanol, UVB lamps, 20 minutes, 35° C.): new absorption band in UVA zone |
|  | C=C(OC(=O)c1ccc(C(C)(C)C)cc1)c1ccccc1 [1-phenylvinyl 4-tert-butylbenzoate, 1-Phenylvinyl 4-tert-butyl-benzoate] |  |  | products detected after irradiation (thin layer chromatography, 1H-NMR) ([2]; tert-butanol, UVB lamps 60 W·m^−2, 5 hours, 35° C.): Some different compounds were detected by thin layer chromatography (hexane/ethyl acetate 2:1), one of said compounds being benzoyl-4-tert-butylbenzoylmethane |
|  | COc1ccc(C(=O)CC(=O)c2ccc(C(C)(C)C)cc2)cc1 [Avobenzone, 4-tert-butyl-4′-methoxydibenzoylmethane] | UVA I^1 (340-400 nm) | 320-400 nm |  |
